Data on ten compounds can be found in ChEMBL document CHEMBL1201862, “PubChem BioAssay data set” (2004).

Molecules are shown by their SMILES. Counter-ions that a name gives are not always drawn.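 Exposure lasted 48 hours, with cells grown in 96-well plates and compounds tested at five concentrations. Here, GI50 denotes the concentration required for 50% inhibition of growth.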 Calls of active or inactive are those of the source. Rule as the data show it: active = GI50 up to about 1.1 µM and inactive = higher.

Test systems include UACC-257; ACHN; SK-OV-3; MDA-N; UO-31; SF-268; Hs-578T; KM12; MCF7; SK-MEL-28; NCI/ADR-RES; M14; A549; NCI-H522; A498; EKVX; SW-620; HOP-62; NCI-H460; SK-MEL-2.
Holding throughout (test): NCI anticancer screen, dose series, 48 h

Consider `C[C@]12CC[C@H]3[C@@H](CCC4=CC(=O)CC[C@@]43C)[C@@H]1CC[C@@H]2OC(=O)c1cccc2c(=O)c3ccccc3[nH]c12`, for which the GI50 is 99.5 µM (inactive) with UACC-257; > 100 µM (inactive) in the test with ACHN; 58.5 µM (inactive) in the test on SK-OV-3; 42.1 µM (inactive) with MDA-N; > 100 µM (inactive) in the test with UO-31; 18.2 µM (inactive) with SF-268. For the same compound, the GI50 was 12.1 µM (inactive) in the test with Hs-578T; 37.2 µM (inactive) with KM12; > 100 µM (inactive) in the test with MCF7; > 100 µM (inactive) with SK-MEL-28; 64 µM (inactive) with NCI/ADR-RES; > 100 µM (inactive) in the test on M14. Also, the GI50 in the test with A549 was > 100 µM (inactive); in the test on NCI-H522 it was > 100 µM (inactive); with A498, > 100 µM (inactive); in the test with EKVX, 7.57 µM (inactive); in the test with SW-620 it was > 100 µM (inactive); with HOP-62 it was 63.5 µM (inactive). For the same compound, the GI50 with NCI-H460 is 46.8 µM (inactive); in the test with SK-MEL-2 it was > 100 µM (inactive).

In the case of `COc1ccc2[nH]c3c([N+](=O)[O-])ccc(Cl)c3c(=O)c2c1`, the GI50 in the test with UACC-257 was 11.5 µM (inactive); in the test on ACHN, 15.8 µM (inactive); in the test with SK-OV-3 it was > 63.1 µM (inactive); with MDA-N, 21.2 µM (inactive); in the test on UO-31, 17.3 µM (inactive); in the test on SF-268 it was 20.8 µM (inactive). Besides, the GI50 is 30.3 µM (inactive) in the test with Hs-578T; > 45.5 µM (inactive) with KM12; 25.1 µM (inactive) in the test on MCF7; 27.2 µM (inactive) in the test with SK-MEL-28; 25.6 µM (inactive) in the test on NCI/ADR-RES; 15.8 µM (inactive) in the test with M14. The GI50 in the test on A549 is 62.4 µM (inactive); in the test on NCI-H522, 19 µM (inactive); in the test on A498, 91.2 µM (inactive); in the test with EKVX, 44.1 µM (inactive); in the test with SW-620, 7.67 µM (inactive); in the test on HOP-62, 26.7 µM (inactive). The GI50 was 29 µM (inactive) with NCI-H460 and 22.1 µM (inactive) in the test on SK-MEL-2.

Consider `CCOC(=O)Cn1c(=O)c2cc(-c3ccccc3)cc3c(Cl)nc4c(OC)c(OC)cc1c4c32`, for which the GI50 in the test on UACC-257 was 18.6 µM (inactive); in the test with ACHN, 19.9 µM (inactive); with SK-OV-3 it was 43.8 µM (inactive); in the test on MDA-N, 17.7 µM (inactive); with UO-31, 2.07 µM (inactive); in the test on SF-268, 9.93 µM (inactive). The GI50 with Hs-578T is 6.97 µM (inactive); with KM12, 31.6 µM (inactive); with MCF7, 9.14 µM (inactive); in the test on SK-MEL-28, 21 µM (inactive); in the test with NCI/ADR-RES, 16.9 µM (inactive); in the test on M14 it was 15.6 µM (inactive). Moreover, the GI50 with A549 is 28 µM (inactive); in the test with NCI-H522 it was 14.8 µM (inactive); with A498 it was 17 µM (inactive); in the test on EKVX, 12.4 µM (inactive); in the test with SW-620, 17.7 µM (inactive); with HOP-62 it was 28.8 µM (inactive). Further, the GI50 in the test on NCI-H460 is 17.1 µM (inactive); in the test with SK-MEL-2 it was 15 µM (inactive).

As to `O=C1c2c[nH]nc2C(c2ccccc2)N1c1ccccc1` (stereo not given), the GI50 with UACC-257, in the test on ACHN, with SK-OV-3, in the test on MDA-N, with UO-31 and with SF-268 was > 10 µM (inactive) each time. For the same compound, the GI50 with Hs-578T, with KM12, with MCF7, in the test with SK-MEL-28, in the test with NCI/ADR-RES and with M14 was > 10 µM (inactive) in each case. Besides, the GI50 in the test with A549, with NCI-H522, in the test with A498, with EKVX, in the test with SW-620 and in the test on HOP-62 was > 10 µM (inactive) each time. In addition, the GI50 in the test with NCI-H460 and in the test with SK-MEL-2 was > 10 µM (inactive) each time.

Consider `COc1cc2c(c3c1c(=O)c1ccccc1n3C)C=CC1(CCCCC1)O2`, for which the GI50 in the test on UACC-257 was > 7.73 µM (inactive); in the test on ACHN, 3.13 µM (inactive); with SK-OV-3, 5.53 µM (inactive); with MDA-N, 2.96 µM (inactive); with UO-31, 0.1 µM (active); in the test on SF-268, 4.48 µM (inactive). Moreover, the GI50 with Hs-578T is 2.54 µM (inactive); in the test on KM12, 0.603 µM (active); in the test with MCF7 it was 2.31 µM (inactive); with SK-MEL-28 it was 4.8 µM (inactive); in the test with NCI/ADR-RES, 3.65 µM (inactive); with M14, 2.68 µM (inactive). For the same compound, the GI50 was 0.446 µM (active) in the test on A549; 3.96 µM (inactive) in the test with NCI-H522; 5.96 µM (inactive) with A498; > 7.94 µM (inactive) with EKVX; 6.92 µM (inactive) in the test on SW-620; 2.3 µM (inactive) in the test with HOP-62. For the same compound, the GI50 in the test with NCI-H460 is 3.82 µM (inactive); in the test with SK-MEL-2 it was 3.35 µM (inactive).

On to `Oc1ccc(C(O)C2CCCCN2)cc1O` (stereo not given) [RIMITEROL HYDROBROMIDE], for which the GI50 in the test with UACC-257 was 57.4 µM (inactive); in the test with ACHN it was > 100 µM (inactive); in the test with SK-OV-3, > 100 µM (inactive); in the test with MDA-N it was > 100 µM (inactive); in the test on UO-31, 32.1 µM (inactive); with SF-268, > 100 µM (inactive). Further, the GI50 in the test on Hs-578T, in the test with KM12, with MCF7, with SK-MEL-28, in the test on NCI/ADR-RES and in the test with M14 was > 100 µM (inactive) in each case. Also, the GI50 was > 100 µM (inactive) with A549; > 100 µM (inactive) with NCI-H522; > 100 µM (inactive) in the test on A498; > 100 µM (inactive) in the test on EKVX; 46.7 µM (inactive) in the test with SW-620; > 100 µM (inactive) with HOP-62. In addition, the GI50 with NCI-H460 and in the test on SK-MEL-2 was > 100 µM (inactive) throughout.

Regarding `CCOC(=O)c1nnc2c(C(=O)OCC)c3ccccc3n2c1N`, the GI50 with UACC-257 was 2.09 µM (inactive); in the test on ACHN, 7.19 µM (inactive); in the test with SK-OV-3, 6.04 µM (inactive); in the test with MDA-N, 4.36 µM (inactive); in the test on UO-31, 7.87 µM (inactive); in the test with SF-268 it was 19.3 µM (inactive). For the same compound, the GI50 is 7.16 µM (inactive) in the test with Hs-578T; 4.43 µM (inactive) in the test with KM12; 13.1 µM (inactive) in the test on MCF7; 5.85 µM (inactive) in the test on SK-MEL-28; 3.61 µM (inactive) in the test with NCI/ADR-RES; 5.97 µM (inactive) in the test with M14. In addition, the GI50 is 10.5 µM (inactive) with A549; 6.21 µM (inactive) with NCI-H522; 4.85 µM (inactive) in the test with A498; 25.8 µM (inactive) in the test with EKVX; 8.26 µM (inactive) in the test with SW-620; 68.9 µM (inactive) with HOP-62. The GI50 with NCI-H460 was 8.13 µM (inactive); with SK-MEL-2, 5.15 µM (inactive).

Turning to `CC(=NNC(=S)Nc1cccc(C)c1)c1cccc(C(C)=NNC(=S)Nc2cccc(C)c2)n1`, the GI50 with UACC-257 is 0.0198 µM (active); with ACHN it was 7.24 µM (inactive); in the test on SK-OV-3 it was 44.4 µM (inactive); in the test on MDA-N it was 42 µM (inactive); in the test with UO-31 it was 16 µM (inactive); with SF-268 it was 59.2 µM (inactive). The GI50 in the test on Hs-578T is > 100 µM (inactive); with KM12 it was 0.851 µM (active); in the test on MCF7, 22.9 µM (inactive); in the test on SK-MEL-28 it was > 100 µM (inactive); in the test with NCI/ADR-RES it was 14.2 µM (inactive); in the test with M14 it was 11.8 µM (inactive). The GI50 with A549 is 18.7 µM (inactive); in the test on NCI-H522, 21.2 µM (inactive); in the test with A498, 21.9 µM (inactive); in the test with EKVX, 26.1 µM (inactive); in the test on SW-620, 19 µM (inactive); with HOP-62, 17 µM (inactive). The results for the GI50 in the test with NCI-H460 and in the test on SK-MEL-2 were 12.8 µM (inactive) and 13.3 µM (inactive), respectively.

For the compound `CNC(=O)CCCN(C)C(=O)CCCCC(=O)N(C)C`, the GI50 was > 59.3 µM (inactive) in the test with UACC-257; > 61.1 µM (inactive) with ACHN; > 61.5 µM (inactive) with SK-OV-3; > 60.8 µM (inactive) in the test on MDA-N; > 61 µM (inactive) in the test with UO-31; > 60.8 µM (inactive) with SF-268. For the same compound, the GI50 was > 56.9 µM (inactive) in the test with Hs-578T; > 59.7 µM (inactive) in the test on KM12; > 62.2 µM (inactive) with MCF7; > 54.2 µM (inactive) with SK-MEL-28; > 59 µM (inactive) with NCI/ADR-RES; > 100 µM (inactive) with M14. For the same compound, the GI50 with A549 was > 57.1 µM (inactive); with NCI-H522, > 58.6 µM (inactive); in the test with A498 it was 34.4 µM (inactive); with EKVX, > 57.9 µM (inactive); in the test with SW-620, > 59.6 µM (inactive); with HOP-62, > 100 µM (inactive). Also, the GI50 in the test on NCI-H460 is > 56 µM (inactive); in the test on SK-MEL-2 it was > 50.9 µM (inactive).

Take `NN(CC(=O)O)CC(=O)O`: the GI50 in the test with UACC-257, in the test with ACHN, in the test with SK-OV-3, in the test on MDA-N, with UO-31 and in the test on SF-268 was > 100 µM (inactive) in each case. In addition, the GI50 in the test with Hs-578T, in the test on KM12, in the test with MCF7, in the test on SK-MEL-28, with NCI/ADR-RES and with M14 was > 100 µM (inactive) each time. For the same compound, the GI50 in the test with A549, with NCI-H522, in the test with A498, in the test on EKVX, in the test on SW-620 and in the test with HOP-62 was > 100 µM (inactive) throughout. Besides, the GI50 with NCI-H460 and in the test with SK-MEL-2 was > 100 µM (inactive) throughout.
